Experimental data from US20120295923A1, “Aminocyclohexanes and Aminotetrahydropyrans and Related Compounds As Gamma-Secretase Modulators” (PFIZER INC., priority 2010, published 2012).
Structures can show the parent of a compound that is named as a salt. Where two headings read alike, the source gives them in different places.

System: γ-secretase; production of amyloid beta protein Aβ(1-42)
Assay: Cell-Based γ-Secretase Assay with ELISA Readout
Settings: human WT-APP overexpressing CHO cells
Method: The ability of compounds to modulate production of amyloid beta protein A6(1-42) was determined using human WT-APP overexpressing CHO cells. Cells were plated at 22,000 cells/100 μL well in 96 well tissue culture treated, clear plates (Falcon) in DMEM/F12 based medium and incubated for 24 hours at 37° C. Compounds for testing were diluted in 100% DMSO to achieve an eleven points, half log, dose response for IC50 determinations. Compounds were added in fresh medium to achieve 1% final DMSO. Appropriate vehicle and inhibitor controls were added to obtain maximum and minimum inhibition values for the assay before the plates were incubated for about 24 hours at 37° C.
Coating of ELISA assay plates was initiated by addition of 50 μL/well of an in-house Aβ(1-42) specific antibody at (4 μg/mL) in 0.1 M NaHCO3 (pH 9.0) into black 384-well Maxisorp® plates (Nunc) and incubated overnight at 4° C. The capture antibody was then aspirated from the ELISA assay plates and 100 μL/well of Blocking Buffer (Dulbecco's PBS, 1.5% BSA (Sigma A7030)) added. Ambient temperature incubation was allowed to proceed for a minimum of two hours before washing 2×100 μL with Wash Buffer (Dulbecco's PBS, 0.05% Tween 20). Assay Buffer (Dulbecco's PBS, 1.0% BSA (Sigma A7030), 0.05% Tween 20) 20 μL/well was then added.
After incubation overnight at 37° C., 5% CO2, 40 μL (in duplicate) of experimental conditioned media were transferred into wells of the blocked ELISA plates containing the capture antibody, followed by overnight incubation at 4° C.
After overnight incubation of the ELISA assay plates at 4° C., unbound Aβ peptides were removed thorough (4×100 μL) washes with Wash Buffer. Europium (Eu) labeled (custom labeled, Perkin Elmer) Aβ(1-16) 6e10 Monoclonal Antibody (Covance #SIG-39320 was added, (50 μL/well Eu-6e10 @ 1:5000, 20 uM EDTA) in Assay Buffer. Incubation at ambient temperature for a minimum of 2 hours was followed by (4×100 μL) washes with Wash Buffer, before 50 μL/well of Delfia Enhancement Solution (PerkinElmer) was added. Following a one hour ambient temperature incubation, the plates were read on an EnVision plate reader (PerkinElmer) using standard DELFIA TRF settings. Data analysis including inhibitory IC50 determination was performed using nonlinear regression fit analysis (in-house software) and the appropriate plate mean values for the maximum and minimum inhibition controls.

[1] = footnote 8: single determination, read-out: Aβ 42B IC50 (nM) (Geometric Mean of 2-8 Determinations)
[2] = geometric mean of 2 determinations unless otherwise indicated (footnote 2: 6-14 determinations), read-out: Aβ 42B IC50

Compound	IC50 [1] [nM]	other results
CC(C)CCN(CCC(F)(F)F)[C@@H]1CC[C@@H](CC(=O)O)C[C@H]1c1ccc(C(F)(F)F)cc1 (racemic) [Example 9, {(1R,3S,4R)/ (1S,3R,4S)-4-[(3-methylbutyl) (3,3,3-trifluoropropyl)amino]-3-[4-(trifluoromethyl)phenyl]cyclohexyl} acetic acid, hydrochloride salt]	618	
CC(C)CCN(CCC(C)C)[C@@H]1CC[C@@H]([C@@H](C)C(=O)O)C[C@H]1c1ccc(C(F)(F)F)cc1 (single isomer, unassigned) [Example 7]		IC50 [2]: 1750 nM
CC(C)CCN(CCC(C)C)[C@@H]1CC[C@@H]([C@H](C)C(=O)O)C[C@H]1c1ccc(C(F)(F)F)cc1 (single isomer, unassigned) [Example 8]		IC50 [2]: 1580 nM
CC(C)C[C@H](C)N(CC1CCCC1)[C@@H]1CC[C@@H](CC(=O)O)C[C@H]1c1ccc(C(F)(F)F)cc1 (single isomer, unassigned) [Example 56]		IC50 (geometric mean of 2-4 determinations unless otherwise indicated (footnote 10: 6-8; footnote 14: single determination), read-out: Aβ 42B IC50): 544 nM
Cc1cc(Cl)ccc1[C@@H]1OC(CC(=O)O)CC[C@H]1N(CC1CCCC1)CC1CCCC1 (stereo in doubt) [Example 24, [(2R,5R,6S)-5-[bis(cyclopentyl-methyl)amino]-6-(4-chloro-2-methylphenyl)tetrahydro-2H-pyran-2-yl]acetic acid]	9190	
O=C(O)C[C@@H]1CC[C@@H](N(CC2CCCC2)CC2CCCC2)[C@H](c2ccc(C(F)(F)F)cc2)C1 [Example 1, {(1R,3S,4R)-4-[bis(cyclopentylmethyl)amino]-3-[4-(trifluoromethyl)phenyl]cyclohexyl}acetic acid]		IC50 [2]: 229 nM
O=C(O)C[C@@H]1CC[C@@H](N(Cc2ccccc2)CC2CCCC2)[C@H](c2ccc(C(F)(F)F)cc2)C1 [Example 2, {(1R,3S,4R)-4-[benzyl(cyclopentylmethyl)amino]-3-[4-(trifluoromethyl)phenyl]cyclohexyl}acetic acid]		IC50 [2]: 139 nM
O=C(O)C[C@@H]1CC[C@@H](N(CC2CCCC2)CC2CCCC2)[C@H](c2ccc(C(F)(F)F)cc2)O1 [Example 3, {(2S,5R,6S)-5-[bis(cyclopentylmethyl)amino]-6-[4-(trifluoromethyl)phenyl]tetrahydro-2H-pyran-2-yl}acetic acid]		IC50 [2]: 357 nM
CC(C)CN(CC1CCCC1)[C@@H]1CC[C@@H](CC(=O)O)O[C@H]1c1ccc(C(F)(F)F)cc1 [Example 4, {(2S,5R,6S)-5-[(cyclopentylmethyl)(isobutyl)amino]-6-[4-(trifluoromethyl)phenyl]tetrahydro-2H-pyran-2-yl}acetic acid]		IC50 [2]: 608 nM
O=C(O)C[C@@H]1CC[C@@H](N(CC2CCCC2)CC2CCCC2)[C@H](c2ccc(Cl)cc2)C1 [Example 6, [(1R,3S,4R)-4-[bis(cyclopentylmethyl)amino]-3-(4-chlorophenyl)cyclohexyl]acetic acid]		IC50 [2]: 719 nM
CC(C)CCN(CCC(F)(F)F)[C@@H]1CO[C@@H](CC(=O)O)C[C@H]1c1ccc(C(F)(F)F)cc1 [Example 10, 2-{(2R,4S,5S)-5-[(3-methylbutyl)(3,3,3-trifluoropropyl)amino]-4-[4-(trifluoromethyl)phenyl]tetrahydro-2H-pyran-2-yl} acetic acid, hydrochloride salt]	4770	
CC(C)CCN(CCC(F)(F)F)[C@@H]1CC[C@@H](CC(=O)O)C[C@H]1c1ccc(C(F)(F)F)cc1 [Example 11, {(1R,3S,4R)-4-[(3-methylbutyl) (3,3,3-trifluoropropyl)amino]-3-[4-(trifluoromethyl)phenyl]cyclohexyl} acetic acid, hydrochloride salt]	470	
CC(C)CCN(CCC(F)(F)F)[C@@H]1CC[C@@H](CC(=O)O)C[C@H]1c1ccc(C(F)(F)F)nc1 [Example 12, {(1R,3S,4R)-4-[(3-methylbutyl) (3,3,3-trifluoro-propyl)amino]-3-[6-(trifluoromethyl)pyridin-3-yl]cyclohexyl}acetic acid]	1370	
CC(C)CCN(CC1CCCCC1)[C@@H]1CC[C@@H](CC(=O)O)C[C@H]1c1ccc(C(F)(F)F)cc1 [Example 13, {(1R,3S,4R)-4-[(cyclohexylmethyl) (3-methylbutyl)amino]-3-[4-(trifluoromethyl)phenyl]cyclohexyl} acetic acid]	236	
CC(C)CCN(CC1(F)CCCCC1)[C@@H]1CC[C@@H](CC(=O)O)C[C@H]1c1ccc(C(F)(F)F)cc1 [Example 14, {(1R,3S,4R)-4-{[(1-fluorocyclo-hexyl)methyl](3-methylbutyl)amino}-3-[4-(trifluoromethyl)phenyl]cyclohexyl} acetic acid]	103	
O=C(O)C[C@@H]1CC[C@@H](N(CC2CCCCC2)CC2CCCCC2)[C@H](c2ccc(C(F)(F)F)cc2)C1 [Example 15, {(1R,3S,4R)-4-[bis(cyclohexylmethyl)amino]-3-[4-(trifluoro-methyl)phenyl]cyclohexyl}acetic acid]	107	
CC(C)CCN(C1CCC(F)(F)CC1)[C@@H]1CC[C@@H](CC(=O)O)C[C@H]1c1ccc(C(F)(F)F)cc1 [Example 16, {(1R,3S,4R)-4-[(4,4-difluoro-cyclohexyl)(3-methylbutyl)amino]-3-[4-(trifluoromethyl)phenyl]cyclohexyl} acetic acid]	496	
CC(C)CCN(CC1CCCCO1)[C@@H]1CC[C@@H](CC(=O)O)C[C@H]1c1ccc(C(F)(F)F)cc1 (stereo partly drawn) [Example 17, {[1R,3S,4R)-4-[(3-methylbutyl) (tetrahydro-2H-pyran-2-ylmethyl)amino]-3-[4-(trifluoromethyl)phenyl]cyclohexyl} acetic acid]	1510	
O=C(O)C[C@@H]1CC[C@@H](N(CC2CCCC2)CC2CCCC2)[C@H](c2ccc(F)cc2)C1 [Example 18, [(1R,3S,4R)-4-[bis(cyclopentyl-methyl)amino]-3-(4-fluorophenyl)cyclohexyl]acetic acid]	2630	
O=C(O)C[C@@H]1CC[C@@H](N(CC2CCCC2)CC2CCCC2)[C@H](c2ccc(C(F)(F)F)nc2)O1 [Example 19, {(2S,5R,6S)-5-[bis(cyclopentyl-methyl)amino]-6-[6-(trifluoromethyl)pyridin-3-yl]tetrahydro-2H-pyran-2-yl}acetic acid]	837	
O=C(O)C[C@@H]1CC[C@@H](N(CC2CCCC2)CC2CCCC2)[C@H](c2cccc(C(F)(F)F)c2)O1 [Example 20, {(2S,5R,6S)-5-[bis(cyclopentyl-methyl)amino]-6-[3-(trifluoromethyl)phenyl]tetrahydro-2H-pyran-2-yl} acetic acid]	959	
CC1(CN(CC2CCCC2)[C@@H]2CC[C@@H](CC(=O)O)C[C@H]2c2ccc(C(F)(F)F)cc2)CCCC1 [Example 21, {(1R,3S,4R)-4-{(cyclopentyl-methyl)[(1-methylcyclo-pentyl)methyl]amino}-3-[4-(trifluoromethyl)phenyl]cyclohexyl} acetic acid]	435	
O=C(O)C[C@H]1CC[C@@H](N(CC2CCCC2)CC2CCCC2)[C@H](c2ccc(C(F)(F)F)cc2)O1 [Example 22, {(2R,5R,6S)-5-[bis(cyclopentyl-methyl)amino]-6-[4-(trifluoromethyl)phenyl]tetrahydro-2H-pyran-2-yl} acetic acid]	6390	
CC1CN([C@@H]2CC[C@@H](CC(=O)O)C[C@H]2c2ccc(C(F)(F)F)cc2)CC2(CCCCC2)C1 (stereo partly drawn) [Example 23, {(1R,3S,4R)-4-(4-methyl-2-azaspiro[5.5]undec-2-yl)-3-[4-(trifluoromethyl)phenyl]cyclohexyl} acetic acid]	868	
O=C(O)C[C@@H]1CC[C@@H](N2C[C@@H]3CC[C@@H](C3)C2)[C@H](c2ccc(C(F)(F)F)cc2)C1 [Example 25, {(1R,3S,4R)-4-[(1R,5S)-3-azabicyclo[3.2.1]oct-3-yl]-3-[4-(trifluoromethyl)phenyl]cyclohexyl} acetic acid]	8840	
O=C(O)C[C@@H]1CC[C@@H](N(Cc2ccc(F)cc2)CC2CCCC2)[C@H](c2ccc(C(F)(F)F)cc2)C1 [Example 26, {(1R,3S,4R)-4-[(cyclopentyl-methyl)(4-fluorobenzyl)amino]-3-[4-(trifluoromethyl)phenyl]cyclohexyl} acetic acid]	190	
O=C(O)C[C@@H]1CC[C@@H](N(Cc2ccccc2F)CC2CCCC2)[C@H](c2ccc(C(F)(F)F)cc2)C1 [Example 27, {(1R,3S,4R)-4-[(cyclopentyl-methyl)(2-fluorobenzyl)amino]-3-[4-(trifluoromethyl)phenyl]cyclohexyl} acetic acid]	155	
